Source: ChEMBL document CHEMBL6120973 (J Med Chem, 2024)

Assays:
[1] = tested on: Human immunodeficiency virus 1; experiment: Antiviral activity against HIV-1 harboring RT F227L/V106A double mutant infected in human MT4 cells assessed as protection against virus-induced cytopathic effect incubated for 5 days by MTT assay; type: functional, organism-based; conditions: Human immunodeficiency virus 1, MT4, 120 h
[2] = molecular target: Human immunodeficiency virus type 1 reverse transcriptase (Human immunodeficiency virus 1, UniProt Q72547); experiment: Inhibition of recombinant wild type HIV-1 Reverse transcriptase incubated for 40 mins by Pico-green reagent based fluorescence analysis
[3] = tested on: Human immunodeficiency virus 1; experiment: Antiviral activity against HIV-1 harboring RT Y181C mutant infected in human MT4 cells assessed as protection against virus-induced cytopathic effect incubated for 5 days by MTT assay; type: functional, organism-based; conditions: Human immunodeficiency virus 1, MT4, 120 h
[4] = tested on: Human immunodeficiency virus 1; experiment: Antiviral activity against HIV-1 harboring RT K103N/Y181C double mutant infected in human MT4 cells assessed as protection against virus-induced cytopathic effect incubated for 5 days by MTT assay; type: functional, organism-based; conditions: Human immunodeficiency virus 1, MT4, 120 h
[5] = tested on: Human immunodeficiency virus 1; experiment: Antiviral activity against wildtype HIV-1 IIIB infected in human MT4 cells assessed as protection against virus-induced cytopathic effect incubated for 5 days by MTT assay; type: functional, organism-based; conditions: Human immunodeficiency virus 1, IIIB, MT4, 120 h
[6] = tested on: Human immunodeficiency virus 1; experiment: Antiviral activity against HIV-1 harboring RT K103N mutant infected in human MT4 cells assessed as protection against virus-induced cytopathic effect incubated for 5 days by MTT assay; type: functional, organism-based; conditions: Human immunodeficiency virus 1, MT4, 120 h
[7] = tested on: Human immunodeficiency virus 1; experiment: Antiviral activity against HIV-1 harboring RT L100I mutant infected in human MT4 cells assessed as protection against virus-induced cytopathic effect incubated for 5 days by MTT assay; type: functional, organism-based; conditions: Human immunodeficiency virus 1, MT4, 120 h
[8] = Cytotoxicity against human MT4 cells assessed as reduction in cell viability measured after 5 days by MTT assay
[9] = tested on: Human immunodeficiency virus 1; experiment: Antiviral activity against HIV-1 harboring RT Y188L mutant infected in human MT4 cells assessed as protection against virus-induced cytopathic effect incubated for 5 days by MTT assay; type: functional, organism-based; conditions: Human immunodeficiency virus 1, MT4, 120 h
[10] = tested on: Human immunodeficiency virus 1; experiment: Antiviral activity against HIV-1 harboring RT E138K mutant infected in human MT4 cells assessed as protection against virus-induced cytopathic effect incubated for 5 days by MTT assay; type: functional, organism-based; conditions: Human immunodeficiency virus 1, MT4, 120 h
[11] = Metabolic stability in rat liver microsomes assessed as half-life at 0.1 uM preincubated for 10 mins followed by NADPH addition and measured upto 60 mins by LC-MS/MS analysis; type: ADME, Microsome; conditions: time < 70 min
[12] = Metabolic stability in human liver microsomes assessed as half-life at 0.1 uM preincubated for 10 mins followed by NADPH addition and measured upto 60 mins by LC-MS/MS analysis; type: ADME, Microsome; conditions: time < 70 min
[13] = Selectivity index, ratio of CC50 for human MT4 cells to EC50 for wild type HIV-1 IIIB infected in human MT4 cellS; conditions: MT4 cells
[14] = Solubility of compound in phosphate buffer at pH 7.4 measured after 24 hrs by HPLC analysis; type: physicochemical
[15] = Solubility of compound in phosphate buffer at pH 7.0 measured after 24 hrs by HPLC analysis; type: physicochemical
[16] = Metabolic stability in dog liver microsomes assessed as half-life at 0.1 uM preincubated for 10 mins followed by NADPH addition and measured upto 60 mins by LC-MS/MS analysis; type: ADME, Canis lupus familiaris, Microsome; conditions: time < 70 min
[17] = Solubility of compound in Watson's distilled pure water measured after 24 hrs by HPLC analysis; type: physicochemical

Structure (SMILES) | EC50 [1] | IC50 [2] | EC50 [3] | EC50 [4] | EC50 [5] | EC50 [6] | EC50 [7] | CC50 at 120 h ([8]; mt4) | EC50 [9] | EC50 [10] | half-life at 0.1 µM [11] | half-life at 0.1 µM [12] | selectivity ratio [13] | CC50 at 120 h ([8]; MT4 cells) | solubility at 24 h [14] | solubility at 24 h [15] | half-life at 0.1 µM [16] | solubility at 24 h [17]
N#Cc1ccc(Nc2nccc(Nc3c(F)cc(-c4ccncc4)cc3F)n2)cc1 | 299 nM | 31 nM | 6 nM | 64 nM | 2 nM | 2 nM | 4 nM | 6000 nM | 57 nM | 10 nM | 13 min | 9.6 min |  |  |  |  |  | 
Cc1cc(-c2ccncc2)cc(C)c1Nc1nc(Nc2ccc(C#N)cc2)ncc1-c1ccnc(Cl)c1 | 1760 nM | 98 nM | 56 nM | 597 nM | 6 nM | 19 nM | 55 nM |  | 83 nM | 26 nM |  |  | 27300 | 158000 nM |  |  |  | 
Cc1cc(-c2cnc(Nc3ccc(C#N)cc3)nc2Nc2c(C)cc(-c3ccncc3)cc2C)ccn1 | 1330 nM | 127 nM | 75 nM | 942 nM | 9 nM | 21 nM | 71 nM |  | 93 nM | 29 nM |  |  | 1630 | 14900 nM |  |  |  | 
Cc1cc(-c2ccncc2)cc(C)c1Nc1nc(Nc2ccc(C#N)cc2)ncc1-c1cncc(N)c1 | 323 nM | 73 nM | 51 nM | 378 nM | 6 nM | 7 nM | 29 nM |  | 63 nM | 13 nM |  |  | 1050 | 6380 nM |  |  |  | 
Cc1cc(-c2ccncc2)cc(C)c1Nc1nc(Nc2ccc(C#N)cc2)ncc1-c1ccc(F)nc1 | 1160 nM | 86 nM | 48 nM | 480 nM | 9 nM | 9 nM | 51 nM |  | 76 nM | 14 nM |  |  | 5530 | 48400 nM |  |  |  | 
Cc1cc(-c2ccncc2)cc(C)c1Nc1nc(Nc2ccc(C#N)cc2)ncc1-c1ccsc1 | 453 nM | 72 nM | 41 nM | 259 nM | 6 nM | 8 nM | 34 nM |  | 47 nM | 43 nM |  |  | > 45200 | > 264000 nM |  |  |  | 
Cc1cc(-c2ccncc2)cc(C)c1Nc1nc(Nc2ccc(C#N)cc2)ncc1-c1ccc(N)nc1 | 1140 nM | 94 nM | 41 nM | 156 nM | 8 nM | 11 nM | 39 nM |  | 50 nM | 11 nM |  |  | 575 | 4870 nM |  |  |  | 
COc1cc(-c2cnc(Nc3ccc(C#N)cc3)nc2Nc2c(C)cc(-c3ccncc3)cc2C)ccn1 | 611 nM | 115 nM | 61 nM | 594 nM | 9 nM | 21 nM | 51 nM |  | 91 nM | 16 nM |  |  | 6750 | 59900 nM |  |  |  | 
Cc1ccc(-c2cnc(Nc3ccc(C#N)cc3)nc2Nc2c(C)cc(-c3ccncc3)cc2C)cn1 | 496 nM | 132 nM | 47 nM | 401 nM | 5 nM | 6 nM | 49 nM |  | 54 nM | 7 nM |  |  | 38900 | 198000 nM |  |  |  | 
Cc1cc(-c2ccncc2)cc(C)c1Nc1nc(Nc2ccc(C#N)cc2)ncc1-c1cncc(Cl)c1 | 1530 nM | 197 nM | 78 nM | 982 nM | 8 nM | 37 nM | 117 nM |  | 121 nM | 45 nM |  |  | > 32800 | > 248000 nM |  |  |  | 
Cc1cc(-c2ccncc2)cc(C)c1Nc1nc(Nc2ccc(C#N)cc2)ncc1-c1ccncc1 | 1980 nM | 59 nM | 139 nM | 1170 nM | 14 nM | 23 nM | 92 nM |  | 182 nM | 41 nM |  |  | > 19100 | > 266000 nM |  |  |  | 
Cc1cc(-c2ccncc2)cc(C)c1Nc1nc(Nc2ccc(C#N)cc2)ncc1-c1ccco1 | 142 nM | 84 nM | 24 nM | 102 nM | 4 nM | 3 nM | 7 nM |  | 15 nM | 7 nM |  |  | 2060 | 7970 nM |  |  |  | 
Cc1cc(-c2ccncc2)cc(C)c1Nc1nc(Nc2ccc(C#N)cc2)ncc1-c1ccnc(F)c1 | 1370 nM | 111 nM | 45 nM | 425 nM | 8 nM | 7 nM | 94 nM |  | 45 nM | 8 nM |  |  | > 31500 | > 256000 nM |  |  |  | 
Cc1cc(-c2ccncc2)cc(C)c1Nc1nc(Nc2ccc(C#N)cc2)ncc1-c1cccs1 | 136 nM | 75 nM | 39 nM | 148 nM | 11 nM | 5 nM | 18 nM |  | 29 nM | 12 nM |  |  | > 24100 | > 264000 nM |  |  |  | 
Cc1cc(C#N)cc(C)c1Oc1nc(Nc2ccc(C#N)cc2)nc(N)c1Br [ETRAVIRINE] | 12 nM |  | 13 nM | 43 nM |  |  | 4 nM |  | 17 nM |  | 13.5 min | 64.1 min |  | > 4610 nM | < 1 µg/mL | < 1 µg/mL | 152 min | < 1 µg/mL
Cc1cc(/C=C/C#N)cc(C)c1Nc1ccnc(Nc2ccc(C#N)cc2)n1 [RILPIVIRINE] |  |  |  |  | 4 nM |  |  |  |  |  | 7.29 min | 16 min |  | > 6350 nM |  |  | 79.3 min | 
